Data reported in PubChem BioAssay AID2745 (NMMLSC, 2010).
Where “and” joins values, the source holds several entries; their conditions need not be identical. Identical values can stand only once. Calls of active or inactive are those of the source. The rule behind the calls is not given here.

Assay: concentration series on yeast TOR reporter LAP4 – cell-based, MLPCN hits, flow cytometry, dose response (AID 2745);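 note: yeast exposed to compound for three hours at 30 degrees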
Details: S. cerevisiae LAP4-GFP reporter, flow cytometry fluorescence; at 33 µM (top of the series)
With `Cc1cccc(N=C2NC(=O)/C(=C/C=C/c3ccco3)S2)c1C` the LAP4-GFP fluorescence (kMESF) was 13.7 kMESF (inactive).
With `N#Cc1cc([N+](=O)[O-])c(-n2nnc3ccccc32)c([N+](=O)[O-])c1` the LAP4-GFP fluorescence (kMESF) was 14.5 kMESF (inactive).
In the case of `Oc1c(C(Nc2cccc(C(F)(F)F)c2)c2ccncc2)ccc2cccnc12` (configuration not stated), the LAP4-GFP fluorescence (kMESF) was 11.8 kMESF (inactive).
For `CCN(CC)C(=S)SSC(=S)N(CC)CC`, the LAP4-GFP fluorescence (kMESF) was 20.4 kMESF (inactive).
With `CCN(CC)C(=O)Oc1ccnc2cc(Cl)ccc12` the LAP4-GFP fluorescence (kMESF) was 7.62 kMESF (inactive).
In the case of `CCOc1ccc(N2C(=O)C(Cl)=C(Nc3ccccc3O)C2=O)cc1`, the LAP4-GFP fluorescence (kMESF) was 5.81 kMESF (inactive).
With `COc1ccc(C(=O)NC(=S)NNC(=O)c2cnccn2)cc1OC` the LAP4-GFP fluorescence (kMESF) was 9.2 kMESF (inactive).
For `COc1ccc(N=Cc2nc(-c3ccccc3)oc2OC(=O)c2ccccc2)cc1`, the LAP4-GFP fluorescence (kMESF) was 4.09 kMESF (inactive).
In the case of `C=CCOc1ccccc1C(=O)/C=C1/C(=O)Nc2ccccc21`, the LAP4-GFP fluorescence (kMESF) was 10.2 kMESF (inactive).
For `O=C(/C=C/Sc1ncn[nH]1)c1ccc(Cl)cc1`, the LAP4-GFP fluorescence (kMESF) was 15.9 kMESF (inactive).
In the case of `Nc1nc2ncc(CNc3ccc(C(=O)N[C@@H](CCC(=O)O)C(=O)O)cc3)nc2c(=O)[nH]1`, the LAP4-GFP fluorescence (kMESF) was 4.01 kMESF (inactive).
For `CN(C)NC(=S)Nc1ccc(S(=O)(=O)N2CCCCC2)cc1`, the LAP4-GFP fluorescence (kMESF) was 3.13 kMESF (inactive).
In the case of `COc1ccccc1N1C(=O)c2cccc3c(C(=O)O)ccc(c23)C1=O`, the LAP4-GFP fluorescence (kMESF) was 6.85 kMESF (inactive).
For `O=C(OCC(=O)N1CCN(C(=O)c2ccco2)CC1)c1cc(-c2ccccc2)nc2ccccc12`, the LAP4-GFP fluorescence (kMESF) was 10.4 kMESF (inactive) and 6.1 kMESF (inactive).
In the case of `Fc1cccc(Nc2ncnc3c2cnn3-c2ccccc2)c1`, the LAP4-GFP fluorescence (kMESF) was 5.86 kMESF (inactive).
With `C#CCOCCOCCOCCNc1nc(N2CCN(C(=O)CCCCCCCCCCNC(=O)[C@@H](CCC(=O)O)n3cc(CCCCCN)nn3)CC2)nc(N2CCN(C(=O)CCCCCCCCCCNC(=O)[C@H](CCCCN)n3cc(C[C@@H](C)CC)nn3)CC2)n1` the LAP4-GFP fluorescence (kMESF) was 6.47 kMESF (inactive).
For `CCOC(=O)c1c(C)oc2c1c(C(c1cccnc1)N1CCOCC1)c(O)c1ccccc12` (configuration not stated), the LAP4-GFP fluorescence (kMESF) was 4.07 kMESF (inactive).
In the case of `C#CCOCCOCCOCCNc1nc(N2CCN(C(=O)CCCCCCCCCCNC(=O)[C@H](CCCCN)n3cc(CCO)nn3)CC2)nc(N2CCN(C(=O)CCCCCCCCCCNC(=O)[C@H](CCCCN)n3cc(C[C@@H](C)CC)nn3)CC2)n1`, the LAP4-GFP fluorescence (kMESF) was 5.86 kMESF (inactive).
For `Cc1cc(C)nc(S/C=C/C(=O)c2ccccc2)n1`, the LAP4-GFP fluorescence (kMESF) was 11 kMESF (inactive).
With `CCN(CC)c1ccc(/C=C2/C(=O)c3ccc(C(=O)O)cc3C2=O)cc1` the LAP4-GFP fluorescence (kMESF) was 13.8 kMESF (inactive).
In the case of `Oc1c(Br)cc(Br)cc1C=Nc1ccc2[nH]ncc2c1`, the LAP4-GFP fluorescence (kMESF) was 13.1 kMESF (inactive).
With `CCC(=O)Oc1oc(-c2ccccc2)nc1C=Nc1ccc(C)cc1` the LAP4-GFP fluorescence (kMESF) was 4.73 kMESF (inactive).
For `CCc1nc2ccccc2c(=O)n1NC(=O)c1c(O)c2ccccc2n(CC)c1=O`, the LAP4-GFP fluorescence (kMESF) was 3.31 kMESF (inactive).
In the case of `C/C(=N\Nc1ncnc2sc(C)c(C)c12)c1ccccn1`, the LAP4-GFP fluorescence (kMESF) was -7.63 kMESF (inactive).
With `Cc1cccc(OCCN2CSC(=S)N(C)C2)c1` the LAP4-GFP fluorescence (kMESF) was 9.83 kMESF (inactive).
With `COC(=O)CCCC1=CC2=CC(=O)C(C)(OC(=O)CCc3ccccc3)C(=O)C2=CO1` (configuration not stated) the LAP4-GFP fluorescence (kMESF) was 3.13 kMESF (inactive).
With `N/C(=N\OC(=O)c1ccccc1Cl)c1ccc(Cl)cc1` the LAP4-GFP fluorescence (kMESF) was 11.3 kMESF (inactive).
For `Cc1cc(NC(c2ccc(Cl)cc2)c2ccc3cccnc3c2O)no1` (configuration not stated), the LAP4-GFP fluorescence (kMESF) was 11.2 kMESF (inactive).
In the case of `C#CCOc1c(Br)cc(/C=C2/C(=O)ON=C2C)cc1OC`, the LAP4-GFP fluorescence (kMESF) was 12.2 kMESF (inactive).
With `COc1ccccc1[C@]1(C)ON(c2ccccc2C(F)(F)F)C1=O` the LAP4-GFP fluorescence (kMESF) was 7.79 kMESF (inactive).
In the case of `CC1(c2ccccc2)ON(c2ccccc2C(F)(F)F)C1=O` (configuration not stated), the LAP4-GFP fluorescence (kMESF) was 5.97 kMESF (inactive).
For `Cc1ccc(NC(=O)c2nc(S(=O)(=O)Cc3ccccc3)ncc2Cl)cc1`, the LAP4-GFP fluorescence (kMESF) was 9.01 kMESF (inactive).
